These results are taken from paper PMC3919030 (Journal of molecular biology, 2013).

Holding throughout (test): size exclusion chromatography
Holding throughout (format): binding
On the technique in general: SEC sorts molecules by how far they enter the pores of the column.

Assay [1] has as its target T1, Vps4p (Saccharomyces cerevisiae, UniProt P52917, E233Q).
T1 sequence (P52917 1-437 E233Q): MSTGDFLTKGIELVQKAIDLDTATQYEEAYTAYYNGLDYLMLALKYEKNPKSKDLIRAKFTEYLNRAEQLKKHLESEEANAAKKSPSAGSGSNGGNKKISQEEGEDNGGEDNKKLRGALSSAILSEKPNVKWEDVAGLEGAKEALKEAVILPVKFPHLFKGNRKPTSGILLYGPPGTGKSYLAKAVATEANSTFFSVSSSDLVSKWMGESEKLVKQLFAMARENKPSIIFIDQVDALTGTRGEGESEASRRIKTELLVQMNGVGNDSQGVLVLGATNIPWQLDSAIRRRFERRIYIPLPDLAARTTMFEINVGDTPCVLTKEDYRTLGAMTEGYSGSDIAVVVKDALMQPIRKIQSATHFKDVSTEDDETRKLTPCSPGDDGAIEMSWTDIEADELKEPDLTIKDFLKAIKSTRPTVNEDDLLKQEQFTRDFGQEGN
The note with it: 2 mM MgCl2, pH 7.4, 4 °C; 1 mM ATP; Walker B mutant.

The target of assay [2] is SsoVps4 (Saccharolobus solfataricus, UniProt Q97ZJ7, E206Q). The note with it: 2 mM MgCl2, pH 7.4, 4 °C, Walker B mutant.
Assay [3] concerns the target T2, SsoVps4 (Saccharolobus solfataricus, UniProt Q97ZJ7).
T2 sequence (Q97ZJ7 1-372): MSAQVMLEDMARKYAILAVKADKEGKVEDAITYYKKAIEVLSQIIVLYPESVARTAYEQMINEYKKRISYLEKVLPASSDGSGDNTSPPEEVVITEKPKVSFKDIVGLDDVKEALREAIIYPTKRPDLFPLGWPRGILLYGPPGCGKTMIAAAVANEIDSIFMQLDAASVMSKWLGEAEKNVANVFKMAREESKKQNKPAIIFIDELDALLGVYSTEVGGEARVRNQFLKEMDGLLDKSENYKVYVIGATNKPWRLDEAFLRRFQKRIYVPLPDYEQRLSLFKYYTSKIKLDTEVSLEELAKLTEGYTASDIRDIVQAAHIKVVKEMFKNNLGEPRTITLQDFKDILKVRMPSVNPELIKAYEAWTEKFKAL
To be noted: 2 mM MgCl2, pH 7.4, 4 °C; 1 mM ADP.

Regarding `Nc1ncnc2c1ncn2[C@@H]1O[C@H](COP(=O)(O)OP(=O)(O)OP(=O)(O)O)[C@@H](O)[C@H]1O` [ATP], in assay [1], the “size exclusion chromatography (nucleotide-bound oligomer)” value was “ATP-bound Vps4p(E233Q) migrated more rapidly than the wild type protein”. Moreover, in assay [2] (1 mM ATP), the “size exclusion chromatography (nucleotide-induced shift of oligomer)” value was “both wild type and E206Q SsoVps4 eluted as lower molecular weight complexes”.
Consider `Nc1ncnc2c1ncn2[C@@H]1O[C@H](COP(=O)(O)OP(=O)(O)O)[C@@H](O)[C@H]1O` [ADP], for which the “size exclusion chromatography (nucleotide-induced shift of oligomer)” value in assay [2] (1 mM ADP) was “both wild type and E206Q SsoVps4 eluted as lower molecular weight complexes”; in assay [3], “both proteins migrated slightly more rapidly when bound to ADP than ATP”.
